Measured values taken from patent EP0068038A1, “(+)-(4R,6S)-(E)-6-(2-(4'-fluoro-3,3',5-trimethyl-(1,1'-biphenyl)-2-yl)ethenyl)-3,4,5,6-tetrahydro-4-hydroxy-2H-pyran-2-one, a process for preparing and a pharmaceutical composition containing the same” (Merck & Co., Inc., priority 1981, dated 1983).
Where two headings read alike, the source gives them in different places. Blank lines part the entries; values can stand above or below the molecule they belong to.

Experiments:
[1] = target: T1, 3-hydroxy-3-methylglutaryl-coenzyme A reductase (Rattus norvegicus, UniProt P51639); conditions: from E.P. publication 0 024 348, cited from earlier work
T1 sequence (P51639 1-887): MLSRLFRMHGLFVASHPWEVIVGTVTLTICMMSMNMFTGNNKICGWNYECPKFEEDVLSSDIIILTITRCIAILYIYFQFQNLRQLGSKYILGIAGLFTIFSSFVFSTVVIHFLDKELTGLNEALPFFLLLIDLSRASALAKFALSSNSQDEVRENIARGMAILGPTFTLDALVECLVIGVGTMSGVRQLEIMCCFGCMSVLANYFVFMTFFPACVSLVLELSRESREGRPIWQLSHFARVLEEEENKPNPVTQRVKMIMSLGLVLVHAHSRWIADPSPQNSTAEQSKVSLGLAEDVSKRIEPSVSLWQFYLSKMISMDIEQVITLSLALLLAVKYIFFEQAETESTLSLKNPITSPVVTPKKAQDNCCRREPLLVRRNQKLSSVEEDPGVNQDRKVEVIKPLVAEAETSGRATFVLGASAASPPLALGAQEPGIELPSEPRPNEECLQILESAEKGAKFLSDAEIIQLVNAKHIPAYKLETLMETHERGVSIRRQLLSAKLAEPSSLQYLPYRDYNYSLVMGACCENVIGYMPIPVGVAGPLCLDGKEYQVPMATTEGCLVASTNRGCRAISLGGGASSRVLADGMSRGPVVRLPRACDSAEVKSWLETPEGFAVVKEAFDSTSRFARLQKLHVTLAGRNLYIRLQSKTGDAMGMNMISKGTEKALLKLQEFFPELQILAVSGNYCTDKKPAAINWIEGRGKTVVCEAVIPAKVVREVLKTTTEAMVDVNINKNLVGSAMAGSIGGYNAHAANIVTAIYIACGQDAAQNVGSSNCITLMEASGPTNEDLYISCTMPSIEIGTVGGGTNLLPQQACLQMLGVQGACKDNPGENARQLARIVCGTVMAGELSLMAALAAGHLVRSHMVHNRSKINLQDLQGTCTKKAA

[2] = target: T1, 3-hydroxy-3-methylglutaryl-coenzyme A reductase; experiment: Method A: in vitro enzyme inhibition (method of Knauss et al.); type: biochemical

SMILES: O=C1C[C@H](O)C[C@@H](/C=C/c2c(Cl)cc(Cl)cc2-c2ccc(F)cc2)O1 [(E)-6-[2-(3,5-dichloro-4'-fluoro[l,l'-biphenyl]-2-yl)ethenyl]-3,4,5,6-tetrahydro-4-hydroxy-2H-pyran-2-one]
- inhibitory potency (relative, in words) ([1]; compared with the (+) trans enantiomer of the 2,4-dichloro-6-(phenylmethoxy)phenyl compound, tested as sodium salt of the dihydroxy acid): even more potent

- inhibitory potency (relative, in words) ([2]; compared with the (+) trans 3,5-dichloro-4'-fluoro-biphenyl compound, tested as sodium salt of the dihydroxy acid): several times more potent
SMILES: Cc1cc(C)c(/C=C/[C@@H]2C[C@@H](O)CC(=O)O2)c(-c2ccc(F)c(C)c2)c1 [III, (+)-(4R, 6S)-(E)-6-[2-(3,3',5-trimethyl-4'-fluoro-[1,1'-biphenyl]-2-yl)ethenyl]-3,4,5,6-tetrahydro-4-hydroxy-2H-pyran-2-one]
- inhibition of cholesterol biosynthesis (in words) ([2]; compared with compactin, test not specified): surpassing the inhibitory activity of compactin

SMILES: O=C1CC(O)CC(CCc2c(Cl)cc(Cl)cc2OCc2ccccc2)O1 (single isomer, unassigned; (+)) [6-[2-(2,4-dichloro-6-(phenylmethoxy)phenyl)ethyl]-3,4,5,6-tetrahydro-4-hydroxy-2H-pyran-2-one]
- IC50 ([1]; method A, tested as the sodium salts of the corresponding dihydroxy acid forms): 68 nM
